# Measured values taken from US6737383B1, “Herbicidal oxadiazolidines” (priority 1999, dated 2004).
# Legend:
# [1] = tested on: rice; experiment: Test B flood test rice; type: in vivo, Oryza sativa
# Method in brief: (§1)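 Each value is a visual injury score relative to controls, with 10 meaning complete control and 0 no effect. Evaluation took place twelve to sixteen days after the 2-leaf-stage plants were treated and kept in the greenhouse.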
# [2] = tested on: velvetleaf; experiment: Test B pre/postemergence velvetleaf; type: in vivo, Abutilon theophrasti
# Method in brief: (§2)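 Herbicidal effect was estimated by eye on a ten-point control scale after plants spent twelve to sixteen days in a greenhouse following soil or foliar treatment. Foliar sprays targeted plants at one to four leaves; all doses were formulated in a non-phytotoxic solvent with surfactant.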
# [3] = tested on: wild oat; experiment: Test B pre/postemergence wild oat; type: in vivo, Avena fatua
# Method in brief: as §2
# [4] = tested on: soybean; experiment: Test B pre/postemergence soybean; type: in vivo, Glycine max
# Method in brief: as §2
# [5] = tested on: cocklebur; experiment: Test B pre/postemergence cocklebur; type: in vivo, Xanthium strumarium
# Method in brief: as §2
# [6] = tested on: corn; experiment: Test B pre/postemergence corn; type: in vivo, Zea mays
# Method in brief: as §2
# [7] = tested on: blackgrass; experiment: Test B pre/postemergence blackgrass; type: in vivo, Alopecurus myosuroides
# Method in brief: as §2
# [8] = tested on: bedstraw; experiment: Test B pre/postemergence bedstraw; type: in vivo, Galium aparine
# Method in brief: as §2
# [9] = tested on: surinam grass; experiment: Test B pre/postemergence surinam grass; type: in vivo, Brachiaria decumbens
# Method in brief: as §2
# [10] = tested on: pigweed; experiment: Test B pre/postemergence pigweed; type: in vivo, Amaranthus retroflexus
# Method in brief: as §2
# [11] = tested on: smallflower flatsedge; experiment: Test B flood test smallflower flatsedge; type: in vivo, Cyperus difformis
# Method in brief: as §1
# [12] = tested on: wheat; experiment: Test B pre/postemergence wheat; type: in vivo, Triticum aestivum
# Method in brief: as §2
# [13] = tested on: bamyardgrass; experiment: Test B flood test barnyardgrass; type: in vivo, Echinochloa crus-galli
# Method in brief: as §1
# [14] = tested on: rape; experiment: Test B pre/postemergence rape; type: in vivo, Brassica napus
# Method in brief: as §2
# [15] = tested on: morningglory; experiment: Test B pre/postemergence morningglory; type: in vivo, Ipomoea hederacea
# Method in brief: as §2
# [16] = tested on: sugar beet; experiment: Test B pre/postemergence sugar beet; type: in vivo, Beta vulgaris
# Method in brief: as §2
# [17] = tested on: crabgrass; experiment: Test B pre/postemergence crabgrass; type: in vivo, Digitaria sanguinalis
# Method in brief: as §2
# [18] = tested on: duck salad; experiment: Test B flood test duck salad; type: in vivo, Heteranthera limosa
# Method in brief: as §1
# [19] = tested on: giant foxtail; experiment: Test B pre/postemergence giant foxtail; type: in vivo, Setaria faberii
# Method in brief: as §2
# [20] = tested on: purple nutsedge; experiment: Test B pre/postemergence purple nutsedge; type: in vivo, Cyperus rotundus
# Method in brief: as §2
# [21] = Rate 62 g/ha, headed Pre-emergence (flood test species), scale 0 to 10 (0 no effect, 10 complete control)
# [22] = Rate 125 g/ha, Pre-emergence, flood test species, scale 0 to 10 where 0 is no effect and 10 is complete control
# [23] = Rate 250 g/ha, Pre-emergence, flood-test species, scale 0 to 10, 0 is no effect, 10 is complete control
# [24] = Rate 500 g/ha, headed Pre-emergence (flood test species), scale 0 to 10 (0 no effect, 10 complete control)
# [25] = Preemergence, Rate 62 g/ha, scale of 0 to 10 where 0 is no effect and 10 is complete control
# [26] = Preemergence, Rate 250 g/ha, scale 0 to 10, 0 is no effect, 10 is complete control
# [27] = Rate 125 g/ha, Postemergence, scale 0 to 10
# [28] = Preemergence, Rate 125 g/ha, 0 is no effect, 10 is complete control
# [29] = Rate 62 g/ha, Postemergence, scale of 0 to 10 where 0 is no effect and 10 is complete control
compound,measurement,setting,value
Cc1ccccc1-n1c(=O)on(C(=O)N(c2ccc(F)cc2Cl)C(C)C)c1=O [Compound 186],Rice plant response rating,[1]; [21],0
same,Rice plant response rating,[1]; [22],0
same,Rice plant response rating,[1]; [23],0
same,"Plant response rating, Rice",[1]; [24],0
same,Velvetleaf plant response rating,[2]; [25],0
same,Velvetleaf plant response rating,[2]; [26],2
same,Velvetleaf plant response rating,[2]; [27],0
same,"Plant response rating (0 to 10; 0 is no effect, 10 is complete control), Velvetleaf","[2]; Rate 250 g/ha, Postemergence",0
same,Wild oats plant response rating,[3]; [25],0
same,Wild oats plant response rating,[3]; [26],0
same,Wild oats plant response rating,[3]; [27],0
same,"Plant response rating (0 to 10; 0 is no effect, 10 is complete control), Wild oats","[3]; Rate 250 g/ha, Postemergence",0
same,Soybean plant response rating,[4]; [25],0
same,Soybean plant response rating (0 to 10 scale),[4]; [28],0
same,Soybean plant response rating,[4]; [26],0
same,Soybean plant response rating,[4]; [29],1
same,Soybean plant response rating,[4]; [27],1
same,"Plant response rating (0 to 10; 0 is no effect, 10 is complete control), Soybean","[4]; Rate 250 g/ha, Postemergence",2
same,Cocklebur plant response rating,[5]; [25],0
same,Cocklebur plant response rating (0 to 10 scale),[5]; [28],0
same,Cocklebur plant response rating,[5]; [26],0
same,Cocklebur plant response rating,[5]; [29],0
same,Cocklebur plant response rating,[5]; [27],0
same,"Plant response rating (0 to 10; 0 is no effect, 10 is complete control), Cocklebur","[5]; Rate 250 g/ha, Postemergence",0
same,Corn plant response rating,[6]; [25],0
same,Corn plant response rating (0 to 10 scale),[6]; [28],0
same,Corn plant response rating,[6]; [26],0
same,Corn plant response rating,[6]; [29],0
same,Corn plant response rating,[6]; [27],0
same,"Plant response rating (0 to 10; 0 is no effect, 10 is complete control), Corn","[6]; Rate 250 g/ha, Postemergence",0
same,Blackgrass plant response rating,[7]; [25],0
same,Blackgrass plant response rating (0 to 10 scale),[7]; [28],0
same,Blackgrass plant response rating,[7]; [26],3
same,Blackgrass plant response rating,[7]; [29],0
same,Blackgrass plant response rating,[7]; [27],0
same,"Plant response rating (0 to 10; 0 is no effect, 10 is complete control), Blackgrass","[7]; Rate 250 g/ha, Postemergence",4
same,Bedstraw plant response rating,[8]; [25],0
same,Bedstraw plant response rating (0 to 10 scale),[8]; [28],0
same,Bedstraw plant response rating,[8]; [26],0
same,Bedstraw plant response rating,[8]; [29],0
same,Bedstraw plant response rating,[8]; [27],0
same,"Plant response rating (0 to 10; 0 is no effect, 10 is complete control), Bedstraw","[8]; Rate 250 g/ha, Postemergence",8
same,B. signalgrass plant response rating,[9]; [25],0
same,B. signalgrass plant response rating (0 to 10 scale),[9]; [28],0
same,B. signalgrass plant response rating,[9]; [26],0
same,B. signalgrass plant response rating,[9]; [29],0
same,B. signalgrass plant response rating,"[9]; Rate 125 g/ha, Postemergence, scale 0 (no effect) to 10 (complete control)",0
same,"Plant response rating, B. signalgrass","[9]; Rate 250 g/ha, Postemergence, scale 0 to 10, 0 is no effect, 10 is complete control",0
same,Redroot pigweed plant response rating,[10]; [25],0
same,Redroot pigweed plant response rating (0 to 10 scale),[10]; [28],0
same,Redroot pigweed plant response rating,[10]; [26],2
same,Redroot pigweed plant response rating,[10]; [29],0
same,Redroot pigweed plant response rating,[10]; [27],0
same,"Plant response rating (0 to 10; 0 is no effect, 10 is complete control), Redroot pigweed","[10]; Rate 250 g/ha, Postemergence",0
same,S. Flatsedge plant response rating,[11]; [21],0
same,S. Flatsedge plant response rating,[11]; [22],0
same,S. Flatsedge plant response rating,[11]; [23],0
same,S. Flatsedge plant response rating,"[11]; Rate 500 g/ha, Pre-emergence, flood test species, scale 0 to 10 (0 no effect, 10 complete control)",0
same,Wheat plant response rating,[12]; [25],0
same,Wheat plant response rating,[12]; [26],0
same,Wheat plant response rating,[12]; [27],0
same,"Plant response rating (0 to 10; 0 is no effect, 10 is complete control), Wheat","[12]; Rate 250 g/ha, Postemergence",0
same,Barnyardgrass plant response rating,[13]; [21],0
same,Barnyardgrass plant response rating,[13]; [22],0
same,Barnyardgrass plant response rating,[13]; [23],0
same,"Plant response rating, Barnyardgrass",[13]; [24],0
same,Rape plant response rating,[14]; [25],0
same,Rape plant response rating (0 to 10 scale),[14]; [28],0
same,Rape plant response rating,[14]; [26],0
same,Rape plant response rating,[14]; [29],0
same,Rape plant response rating,[14]; [27],0
same,"Plant response rating (0 to 10; 0 is no effect, 10 is complete control), Rape","[14]; Rate 250 g/ha, Postemergence",0
same,Morningglory plant response rating,[15]; [25],0
same,Morningglory plant response rating (0 to 10 scale),[15]; [28],0
same,Morningglory plant response rating,[15]; [26],0
same,Morningglory plant response rating,[15]; [29],1
same,Morningglory plant response rating,[15]; [27],2
same,"Plant response rating (0 to 10; 0 is no effect, 10 is complete control), Morningglory","[15]; Rate 250 g/ha, Postemergence",2
same,Sugarbeets plant response rating,[16]; [25],0
same,Sugarbeets plant response rating (0 to 10 scale),[16]; [28],0
same,Sugarbeets plant response rating,[16]; [26],0
same,Sugarbeets plant response rating,[16]; [29],0
same,Sugarbeets plant response rating,[16]; [27],0
same,"Plant response rating (0 to 10; 0 is no effect, 10 is complete control), Sugarbeets","[16]; Rate 250 g/ha, Postemergence",0
same,Crabgrass plant response rating,[17]; [25],2
same,Crabgrass plant response rating (0 to 10 scale),[17]; [28],6
same,Crabgrass plant response rating,[17]; [26],6
same,Crabgrass plant response rating,[17]; [29],0
same,Crabgrass plant response rating,[17]; [27],0
same,"Plant response rating (0 to 10; 0 is no effect, 10 is complete control), Crabgrass","[17]; Rate 250 g/ha, Postemergence",2
same,Ducksalad plant response rating,[18]; [21],0
same,Ducksalad plant response rating,[18]; [22],0
same,Ducksalad plant response rating,[18]; [23],0
same,"Plant response rating, Ducksalad",[18]; [24],0
same,Giant foxtail plant response rating,[19]; [25],5
same,Giant foxtail plant response rating (0 to 10 scale),[19]; [28],9
same,Giant foxtail plant response rating,[19]; [26],9
same,Giant foxtail plant response rating,[19]; [29],0
same,Giant foxtail plant response rating,[19]; [27],0
same,"Plant response rating (0 to 10; 0 is no effect, 10 is complete control), Giant foxtail","[19]; Rate 250 g/ha, Postemergence",0
same,Nutsedge plant response rating,[20]; [25],0
same,Nutsedge plant response rating (0 to 10 scale),[20]; [28],0
same,Nutsedge plant response rating,[20]; [29],0
same,Nutsedge plant response rating,[20]; [27],0
same,"Plant response rating (0 to 10; 0 is no effect, 10 is complete control), Nutsedge","[20]; Rate 250 g/ha, Postemergence",2
